Results published in ChEMBL document CHEMBL1201862, “PubChem BioAssay data set” (2004).
The source made the active and inactive calls.

Experiments:
[1] = target: T1, Alkaline phosphatase, tissue-nonspecific isozyme (Homo sapiens, UniProt P05186); experiment: TNAP enzyme activators, dose response, selectivity assay for human IAP activator project, biochemical, TNAP isozyme, human IAP uHTS hits (AID 488886); format: functional;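 also: potency of compounds raising TNAP activity as a selectivity check on IAP activators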
T1 sequence (P05186 whole entry): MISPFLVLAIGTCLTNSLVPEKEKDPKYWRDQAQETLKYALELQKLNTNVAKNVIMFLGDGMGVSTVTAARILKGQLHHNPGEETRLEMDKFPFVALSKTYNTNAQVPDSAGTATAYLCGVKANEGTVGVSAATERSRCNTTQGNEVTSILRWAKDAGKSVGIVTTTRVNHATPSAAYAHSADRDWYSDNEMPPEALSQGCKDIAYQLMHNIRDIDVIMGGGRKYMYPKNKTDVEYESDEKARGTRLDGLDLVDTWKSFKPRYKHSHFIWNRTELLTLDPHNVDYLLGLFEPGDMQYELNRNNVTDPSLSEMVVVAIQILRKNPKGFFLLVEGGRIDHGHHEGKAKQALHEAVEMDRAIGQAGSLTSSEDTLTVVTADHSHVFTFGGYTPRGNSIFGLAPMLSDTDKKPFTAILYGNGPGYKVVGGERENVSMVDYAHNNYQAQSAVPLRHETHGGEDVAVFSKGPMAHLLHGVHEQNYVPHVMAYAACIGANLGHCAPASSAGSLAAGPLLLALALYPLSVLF

[2] = target: T2, Intestinal-type alkaline phosphatase (Homo sapiens, UniProt P09923); experiment: human IAP activators, dose response, biochemical, luminescent, uHTS hits, set 2 (AID 488817); format: functional;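 also: potency of activators that raise enzyme activity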
[3] = target: T3, Intestinal-type alkaline phosphatase (Mus musculus, UniProt P24822); experiment: PubChem AID 488874; format: functional
[4] = target: T2, Intestinal-type alkaline phosphatase; experiment: human intestinal alkaline phosphatase activators, dose response, biochemical, luminescence, uHTS hits (AID 463120); format: functional
[5] = target: Sphingosine 1-phosphate receptor 1 (Homo sapiens, UniProt P21453); experiment: Fluorescence-based counterscreen assay for S1P4 agonists: Cell-based dose response high throughput screening assay to identify agonists of the Sphingosine 1-Phosphate Receptor 1 (S1P1). [Related pubchem assays (depositor defined):AID1509, AID1523, AID1801, AID463107, AID463118, AID463119, AID463122, AID463123, AID463129, AID463225, AID504400, AID504460]; format: functional
[6] = target: T4, Sphingosine 1-phosphate receptor 4 (Homo sapiens, UniProt O95977); experiment: Fluorescence dose response cell-based high throughput screening assay for agonists of the Sphingosine 1-Phosphate Receptor 4 (S1P4). [Related pubchem assays: 1509 (Primary screen.), 1523 (Confirmation screen in triplicates.)]; format: functional
T4 sequence (O95977 whole entry): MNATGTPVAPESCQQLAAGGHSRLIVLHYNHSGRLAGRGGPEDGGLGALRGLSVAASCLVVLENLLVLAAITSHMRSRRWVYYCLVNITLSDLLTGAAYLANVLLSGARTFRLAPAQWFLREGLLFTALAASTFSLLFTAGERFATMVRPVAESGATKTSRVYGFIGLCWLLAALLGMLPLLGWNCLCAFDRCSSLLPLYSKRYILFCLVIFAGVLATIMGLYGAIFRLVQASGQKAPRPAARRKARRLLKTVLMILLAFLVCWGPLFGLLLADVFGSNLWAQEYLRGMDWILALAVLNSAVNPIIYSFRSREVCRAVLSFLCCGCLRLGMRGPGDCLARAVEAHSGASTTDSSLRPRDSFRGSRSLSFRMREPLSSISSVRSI

Melanocortin receptor 4 = Melanocortin receptor 4 (Homo sapiens, UniProt P32245); experiment: MC4R antagonist potency on cAMP, dose response, cell-based, TR-FRET, biased antagonists (AID 602298); format: functional;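 also: antagonist potency against agonist-stimulated cAMP production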
[7] = nonselective inhibitors of cellular cAMP signaling, dose response, counter-screen for MC4R biased antagonist project, cell-based, TR-FRET cAMP detection (AID 602305); format: functional;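 also: U2OS cells stimulated with forskolin near its EC80 as the cAMP inducer; potency is for inhibition of forskolin-stimulated cAMP signaling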
[8] = target: T5, G-protein coupled receptor 55 (Homo sapiens, UniProt Q9Y2T6); experiment: GPR55 antagonists, SAR follow-up, counter-screen for GPR35 antagonist project, imaging, image-based (AID 2397); format: functional
Streptococcus = experiment: Group A Streptococcus viability loss, dose response, counter-screen for streptokinase expression inhibitor project, luminescence, BacTiterGlo (AID 1915); format: functional, organism-based;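 also: potency for reduction of bacterial viability or growth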
Streptokinase A = target: T6, Streptokinase A (Streptococcus pyogenes serotype M1, UniProt P10520); experiment: S. pyogenes streptokinase expression inhibitors, potency, dose response, plasminogen activation absorbance, OD405 (AID 1914); format: functional, Streptococcus pyogenes M1 GAS;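 also: secreted streptokinase activity via plasminogen activation per viability signal from cell pellet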
T6 sequence (P10520 whole entry): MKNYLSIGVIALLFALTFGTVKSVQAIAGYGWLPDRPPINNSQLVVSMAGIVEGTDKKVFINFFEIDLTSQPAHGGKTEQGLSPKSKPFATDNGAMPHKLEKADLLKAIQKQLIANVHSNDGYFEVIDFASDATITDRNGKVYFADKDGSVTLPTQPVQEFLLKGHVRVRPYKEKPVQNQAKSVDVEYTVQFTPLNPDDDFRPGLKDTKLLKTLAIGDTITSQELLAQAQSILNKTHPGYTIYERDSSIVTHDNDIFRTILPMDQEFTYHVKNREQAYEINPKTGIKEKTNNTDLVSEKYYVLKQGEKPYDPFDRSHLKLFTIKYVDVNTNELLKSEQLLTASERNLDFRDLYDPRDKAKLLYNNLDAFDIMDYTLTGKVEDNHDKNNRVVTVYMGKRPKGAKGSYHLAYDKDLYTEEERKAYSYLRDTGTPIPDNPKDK

[9] = system: Streptococcus sp. 'group A'; experiment: growth inhibition of control SK(-) GAS strain, dose response, counter-screen for streptokinase expression inhibitor project, luminescence, kanamycin, BacTiterGlo, confirmation (AID 1900); format: functional, organism-based
Cannabinoid receptor 1 = Cannabinoid receptor 1 (Homo sapiens, UniProt P21554); experiment: SAR analysis of antagonists of the Cannabinoid Receptor 1 using an Image-Based Assay. [Related pubchem assays (depositor defined):AID1961, AID1965]; format: functional
Cannabinoid receptor 2 [10] = target: T7, Cannabinoid receptor 2 (Homo sapiens, UniProt P34972); experiment: SAR analysis of antagonists of the Cannabinoid Receptor 2 using an Image-Based Assay - Set 2. [Related pubchem assays (depositor defined):AID1961, AID1965]; format: functional
[11] = target: T5, G-protein coupled receptor 55; experiment: GPR55 agonists via beta-arrestin recruitment, primary screen, imaging, U2OS cells, beta-arrestin-GFP redistribution (AID 1961); format: functional
[12] = target: T8, Tyrosine-protein phosphatase non-receptor type 7 (Homo sapiens, UniProt P35236); experiment: SAR analysis of chemical inhibitors of HePTP using a Fluorescent assay - Set 2. [Related pubchem assays (depositor defined):AID1059, AID1077, AID1661, AID2085, AID521]; format: functional
T8 sequence (P35236 whole entry): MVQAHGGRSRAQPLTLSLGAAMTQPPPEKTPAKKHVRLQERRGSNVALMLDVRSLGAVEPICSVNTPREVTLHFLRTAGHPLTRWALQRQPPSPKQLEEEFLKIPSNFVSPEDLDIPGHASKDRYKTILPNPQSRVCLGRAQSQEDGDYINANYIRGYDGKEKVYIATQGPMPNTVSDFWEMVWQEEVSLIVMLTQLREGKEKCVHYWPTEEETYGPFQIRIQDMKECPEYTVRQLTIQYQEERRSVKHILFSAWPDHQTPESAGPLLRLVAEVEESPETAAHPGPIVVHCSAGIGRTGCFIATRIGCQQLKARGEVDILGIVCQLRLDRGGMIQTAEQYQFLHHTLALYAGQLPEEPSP

[13] = target: Dual specificity protein phosphatase 3 (Homo sapiens, UniProt P51452); experiment: SAR VHR1 Fluorescent Assay for In Vitro dose response studies Set 2. [Related pubchem assays (depositor defined):AID1654, AID1661, AID1878]; format: functional
[14] = target: T5, G-protein coupled receptor 55; experiment: SAR analysis of selective Agonists of GPR55 using an Image-Based Assay. [Related pubchem assays (depositor defined):AID1961, AID1965]; format: functional
Cannabinoid receptor 2 [15] = target: T7, Cannabinoid receptor 2; experiment: SAR analysis of agonists of the Cannabinoid Receptor 2 using an Image-Based Assay - Set 2. [Related pubchem assays (depositor defined):AID1961, AID1965]; format: functional
[16] = target: T2, Intestinal-type alkaline phosphatase; experiment: Dose Response confirmation of uHTS hits from a small molecule inhibitors of human intestinal alkaline phosphatase via a luminescent assay. [Related pubchem assays (depositor defined):AID2544, AID2574]; format: functional
[17] = target: T2, Intestinal-type alkaline phosphatase; experiment: human IAP inhibitors, dose response, biochemical, luminescent, uHTS hits, set 2 (AID 488793); format: functional
[18] = target: T1, Alkaline phosphatase, tissue-nonspecific isozyme; experiment: inhibition of tissue-nonspecific alkaline phosphatase – biochemical, dose response (AID 488882); format: functional
[19] = target: T3, Intestinal-type alkaline phosphatase; experiment: PubChem AID 488875; format: functional
Cytochrome P450 2D6 = Cytochrome P450 2D6 (Homo sapiens, UniProt P10635);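 also: CYP2D6 member of a cytochrome P450 panel assay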
Beta Lactamase = Beta Lactamase (Pseudomonas aeruginosa, UniProt Q932Y6); experiment: beta-lactamase reporter inhibitor potency, dose response, artefact control for NOD2-RIPK2 interaction inhibitor project, BLA reporter cells, FRET fluorescence (AID 651552); format: functional, cell-based
[20] = target: Nuclear receptor ROR-alpha (Homo sapiens, UniProt P35398); experiment: ROR modulator nuclear receptor reporter panel, late-stage follow-up, ROR modulator project, cell-based, luciferase reporter, panel member RORA (AID 2117)
[21] = Fluorescence-based cell-based high throughput dose response assay for inhibitors of the interaction of nucleotide-binding oligomerization domain containing 2 (NOD2) and the receptor-interacting serine-threonine kinase 2 (RIPK2).; format: functional; conditions: Homo sapiens
[22] = target: Nuclear receptor ROR-gamma (Homo sapiens, UniProt P51449); experiment: ROR modulator nuclear receptor reporter panel, late-stage follow-up, ROR modulator project, cell-based, luciferase reporter, panel member RORG (AID 2117)

T5 sequence (Q9Y2T6 whole entry): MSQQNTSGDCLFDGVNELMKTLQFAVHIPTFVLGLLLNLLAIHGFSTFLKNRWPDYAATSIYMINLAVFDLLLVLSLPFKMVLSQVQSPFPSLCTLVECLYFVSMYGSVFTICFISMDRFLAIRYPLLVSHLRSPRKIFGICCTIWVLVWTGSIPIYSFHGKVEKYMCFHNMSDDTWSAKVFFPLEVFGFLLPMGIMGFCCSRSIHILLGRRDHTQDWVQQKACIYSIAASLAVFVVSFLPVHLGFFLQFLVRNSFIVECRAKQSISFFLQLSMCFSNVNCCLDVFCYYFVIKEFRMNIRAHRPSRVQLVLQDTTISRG
T2 sequence (P09923 whole entry): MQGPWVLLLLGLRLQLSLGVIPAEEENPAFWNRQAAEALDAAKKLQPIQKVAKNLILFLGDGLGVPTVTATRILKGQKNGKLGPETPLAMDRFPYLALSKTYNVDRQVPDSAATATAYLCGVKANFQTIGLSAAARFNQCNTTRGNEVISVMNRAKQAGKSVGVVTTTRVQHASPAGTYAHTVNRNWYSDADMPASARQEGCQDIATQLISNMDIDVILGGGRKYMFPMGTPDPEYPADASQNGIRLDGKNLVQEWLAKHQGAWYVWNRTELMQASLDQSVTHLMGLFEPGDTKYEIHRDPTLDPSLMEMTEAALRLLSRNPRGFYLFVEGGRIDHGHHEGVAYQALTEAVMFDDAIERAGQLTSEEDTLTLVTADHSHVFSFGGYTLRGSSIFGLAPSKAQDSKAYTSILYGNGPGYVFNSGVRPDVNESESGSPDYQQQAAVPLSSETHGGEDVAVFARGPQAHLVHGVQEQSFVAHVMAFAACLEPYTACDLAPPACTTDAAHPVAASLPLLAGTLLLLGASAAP
T7 sequence (P34972 whole entry): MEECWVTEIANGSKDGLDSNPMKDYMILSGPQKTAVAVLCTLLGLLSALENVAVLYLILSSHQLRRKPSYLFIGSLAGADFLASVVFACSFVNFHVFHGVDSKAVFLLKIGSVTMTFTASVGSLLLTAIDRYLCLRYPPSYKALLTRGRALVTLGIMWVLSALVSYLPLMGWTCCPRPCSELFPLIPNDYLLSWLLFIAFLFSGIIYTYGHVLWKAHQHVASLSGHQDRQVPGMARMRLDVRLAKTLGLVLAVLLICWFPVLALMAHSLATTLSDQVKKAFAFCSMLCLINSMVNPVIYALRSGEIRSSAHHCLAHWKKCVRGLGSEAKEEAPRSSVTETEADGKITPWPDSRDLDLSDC
T3 sequence (P24822 whole entry): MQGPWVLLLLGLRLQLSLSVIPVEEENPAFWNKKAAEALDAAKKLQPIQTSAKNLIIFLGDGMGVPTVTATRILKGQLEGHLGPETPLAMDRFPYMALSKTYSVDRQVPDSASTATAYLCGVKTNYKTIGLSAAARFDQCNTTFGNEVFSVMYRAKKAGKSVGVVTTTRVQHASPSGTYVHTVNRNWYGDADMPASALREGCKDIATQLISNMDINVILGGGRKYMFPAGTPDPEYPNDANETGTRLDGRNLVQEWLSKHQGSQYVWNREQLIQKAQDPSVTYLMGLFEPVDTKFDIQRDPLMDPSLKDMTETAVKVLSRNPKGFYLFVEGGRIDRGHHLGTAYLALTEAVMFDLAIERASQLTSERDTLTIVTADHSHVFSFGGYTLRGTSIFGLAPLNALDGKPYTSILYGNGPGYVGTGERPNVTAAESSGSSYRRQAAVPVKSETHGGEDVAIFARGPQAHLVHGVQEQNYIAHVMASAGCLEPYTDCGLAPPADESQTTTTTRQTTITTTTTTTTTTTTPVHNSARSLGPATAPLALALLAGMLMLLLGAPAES
Sequence of Cannabinoid receptor 1 (P21554 whole entry): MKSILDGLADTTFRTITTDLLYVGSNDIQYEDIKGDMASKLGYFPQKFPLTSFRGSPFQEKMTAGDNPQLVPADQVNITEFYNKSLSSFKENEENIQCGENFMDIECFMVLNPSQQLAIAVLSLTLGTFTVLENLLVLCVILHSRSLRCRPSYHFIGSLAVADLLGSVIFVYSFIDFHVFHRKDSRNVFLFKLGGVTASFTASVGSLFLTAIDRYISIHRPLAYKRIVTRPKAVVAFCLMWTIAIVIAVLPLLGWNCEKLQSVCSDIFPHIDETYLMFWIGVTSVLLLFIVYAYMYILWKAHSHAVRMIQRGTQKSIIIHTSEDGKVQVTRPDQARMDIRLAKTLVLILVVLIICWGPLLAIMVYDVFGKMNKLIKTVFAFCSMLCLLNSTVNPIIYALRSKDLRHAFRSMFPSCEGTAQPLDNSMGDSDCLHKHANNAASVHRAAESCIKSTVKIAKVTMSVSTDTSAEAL
Sequence of Nuclear receptor ROR-alpha (P35398 whole entry, the tested form may be a part): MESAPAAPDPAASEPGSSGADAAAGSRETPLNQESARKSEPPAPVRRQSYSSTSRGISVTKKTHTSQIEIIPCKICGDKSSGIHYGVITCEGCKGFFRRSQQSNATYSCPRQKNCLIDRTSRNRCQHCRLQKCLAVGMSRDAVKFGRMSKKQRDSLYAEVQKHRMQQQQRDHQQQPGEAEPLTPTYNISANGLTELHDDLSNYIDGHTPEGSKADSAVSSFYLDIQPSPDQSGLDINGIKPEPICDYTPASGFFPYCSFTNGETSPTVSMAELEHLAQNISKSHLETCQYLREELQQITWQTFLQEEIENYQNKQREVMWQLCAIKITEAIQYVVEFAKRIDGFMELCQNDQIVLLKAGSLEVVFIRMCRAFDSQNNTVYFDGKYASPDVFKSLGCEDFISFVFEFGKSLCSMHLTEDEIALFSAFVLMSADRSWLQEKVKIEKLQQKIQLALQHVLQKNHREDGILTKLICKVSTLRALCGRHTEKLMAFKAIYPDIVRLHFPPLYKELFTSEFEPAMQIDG
Sequence of Dual specificity protein phosphatase 3 (P51452 whole entry): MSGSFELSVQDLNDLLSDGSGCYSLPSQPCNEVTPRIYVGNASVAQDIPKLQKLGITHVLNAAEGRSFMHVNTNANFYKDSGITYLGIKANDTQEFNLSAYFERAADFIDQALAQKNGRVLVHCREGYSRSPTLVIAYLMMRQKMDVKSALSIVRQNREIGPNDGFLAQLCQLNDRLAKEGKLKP
Sequence of Cytochrome P450 2D6 (P10635 whole entry): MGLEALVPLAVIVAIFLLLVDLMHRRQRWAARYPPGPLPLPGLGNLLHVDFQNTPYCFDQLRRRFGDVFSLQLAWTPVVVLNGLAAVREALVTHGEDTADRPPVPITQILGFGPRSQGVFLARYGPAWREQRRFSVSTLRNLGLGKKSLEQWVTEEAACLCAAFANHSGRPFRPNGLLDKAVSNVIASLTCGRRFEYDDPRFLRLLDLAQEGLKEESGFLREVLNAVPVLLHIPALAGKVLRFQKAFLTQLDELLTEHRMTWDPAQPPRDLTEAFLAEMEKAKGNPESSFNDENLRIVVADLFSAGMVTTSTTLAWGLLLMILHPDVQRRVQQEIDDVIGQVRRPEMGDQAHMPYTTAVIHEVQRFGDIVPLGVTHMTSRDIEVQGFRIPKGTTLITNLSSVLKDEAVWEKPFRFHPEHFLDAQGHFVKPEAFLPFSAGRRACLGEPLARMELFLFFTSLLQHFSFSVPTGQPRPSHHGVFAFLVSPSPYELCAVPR
Sequence of Melanocortin receptor 4 (P32245 whole entry): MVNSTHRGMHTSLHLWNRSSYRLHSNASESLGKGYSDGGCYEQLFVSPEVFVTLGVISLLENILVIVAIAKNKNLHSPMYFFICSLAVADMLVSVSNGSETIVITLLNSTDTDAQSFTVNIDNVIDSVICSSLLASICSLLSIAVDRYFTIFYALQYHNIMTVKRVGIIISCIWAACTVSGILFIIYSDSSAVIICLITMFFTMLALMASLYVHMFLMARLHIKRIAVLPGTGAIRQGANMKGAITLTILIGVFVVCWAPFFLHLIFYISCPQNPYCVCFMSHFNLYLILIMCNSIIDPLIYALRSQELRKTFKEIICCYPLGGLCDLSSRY
Sequence of Beta Lactamase (Q932Y6 whole entry): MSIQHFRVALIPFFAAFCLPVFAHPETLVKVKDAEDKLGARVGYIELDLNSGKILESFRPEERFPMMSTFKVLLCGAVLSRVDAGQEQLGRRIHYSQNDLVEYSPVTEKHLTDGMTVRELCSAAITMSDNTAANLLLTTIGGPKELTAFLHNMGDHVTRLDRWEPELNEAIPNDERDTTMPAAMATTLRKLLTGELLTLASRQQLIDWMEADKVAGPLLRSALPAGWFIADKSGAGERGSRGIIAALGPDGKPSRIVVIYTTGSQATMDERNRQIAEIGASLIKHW
Sequence of Sphingosine 1-phosphate receptor 1 (P21453 whole entry): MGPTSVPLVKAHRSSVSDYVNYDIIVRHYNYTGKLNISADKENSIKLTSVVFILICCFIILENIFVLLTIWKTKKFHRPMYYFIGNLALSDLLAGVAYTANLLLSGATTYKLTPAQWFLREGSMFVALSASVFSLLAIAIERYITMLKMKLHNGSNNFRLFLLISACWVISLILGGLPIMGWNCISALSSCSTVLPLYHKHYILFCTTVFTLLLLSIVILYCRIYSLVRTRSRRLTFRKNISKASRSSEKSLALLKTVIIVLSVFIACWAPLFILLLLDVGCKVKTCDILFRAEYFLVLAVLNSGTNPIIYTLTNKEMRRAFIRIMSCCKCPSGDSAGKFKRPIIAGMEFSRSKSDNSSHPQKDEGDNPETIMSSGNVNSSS

Structure (SMILES): Cc1cccc(-n2ncc3c(NNC(=O)c4ccco4)ncnc32)c1
- EC50 [1]: 7.58 µM (active)
- EC50 [2]: 7.33 µM (active)
- IC50 [3]: 66.9 µM (active)
- EC50 [4]: 7.19 µM (active)

Structure (SMILES): O=C(NCc1ccccc1)c1nc[nH]c1C(=O)N[C@@H](Cc1ccccc1)C(=O)OCc1ccccc1
- EC50 [5]: > 49.8 µM (inactive)
- EC50 [6]: 90.2 µM (not active)

Structure (SMILES): Cc1nc(N2CCC(C)CC2)c2c(C)c(C(=O)Nc3ccccc3C(F)(F)F)sc2n1
- IC50 (Melanocortin receptor 4): > 64.6 µM (inactive)
- IC50 [7]: > 64.6 µM (inactive)
- IC50 [8]: 6.95 µM (active)
- EC50 (Streptococcus): 41.5 µM (active)
- EC50 (Streptokinase A): 6.34 µM (active)
- EC50 [9]: 3.69 µM (active)

Structure (SMILES): COc1ccccc1/C=C/C(=O)NC(=S)Nc1ccc(S(=O)(=O)N(C)c2ccccc2)cc1
- IC50 (Cannabinoid receptor 1): > 32 µM (inactive)
- IC50 (Cannabinoid receptor 2 [10]): > 32 µM (inactive)
- EC50 [11]: < 0.5 µM (active)
- IC50 [12]: > 100 µM (inactive)
- IC50 [13]: > 100 µM (inactive)
- EC50 [14]: 0.114 µM (active)
- EC50 (Cannabinoid receptor 2 [15]): > 32 µM (inactive)

Structure (SMILES): O=C1C2C3C=CC(C3)C2C(=O)N1c1n[nH]c(-c2cccnc2)n1 (stereo not drawn)
- IC50 [16]: 5.18 µM (active)
- IC50 [17]: 7.69 µM (active)
- IC50 [18]: > 100 µM (inactive)
- EC50 [19]: > 100 µM (inactive)

Structure (SMILES): CC1Cc2ccccc2N1C(=O)CN1C(=O)COc2ccccc21 (stereo not drawn)
- AC50 (Cytochrome P450 2D6): inconclusive

Structure (SMILES): O=S(=O)(Nc1ccc(C(O)(C(F)(F)F)C(F)(F)F)cc1)c1ccc(Cl)c2nonc12
- IC50 (Beta Lactamase): 41.6 µM (inactive)
- IC50 [20]: 7.28 µM (active)
- IC50 [21]: 14.3 µM (inactive)
- IC50 [22]: 2.08 µM (active)
